Data published in US20030220267A1, “Borinic acid protease inhibitors” (priority 2001, published 2003).
Read-outs that look alike come from different tables or passages of the source.

What was measured:
chymotrypsin = chymotrypsin (Bos taurus, UniProt P00766); conditions: pH 7.5; cited from earlier work
[1] = From the text: Furthermore, we attempted to separate the crude product on HPLC using a C18 reverse phase column and water/acetonitrile as the solvent. […] Using trifluoroacetic acid as part of the solvent mixture will acidify the media and might prevent decomposition.
HIV-1 protease = molecular target: T1, HIV-1 protease (Human immunodeficiency virus type 1 group M subtype B, UniProt P04585); test: HIV-1 protease inhibition; format: biochemical, Human immunodeficiency virus 1; conditions: models such as those described by Pivazyan et al., Biochem. Pharma, 2000, 60, 927
T1 construct: Teach monomer is formed by 99 residues organized in β strands
From the text: The ability of a compound of the invention to act as an inhibitor of HIV-1 protease may be determined using pharmacological models which are well known to the art, such as tnose described by A. D. Pivazyan et al., Biochem. Pharma, 2000, 60, 927.

Compound | Ki (chymotrypsin) [nM] | stability under HPLC conditions ([1]; C18 reverse phase column, water/acetonitrile, gradient separation, crude product) | stability in buffer solution ([1]; acidic and neutral media) | stability in buffer solution ([1]; basic conditions) | inhibition of HIV-1 protease (HIV-1 protease)
CC(=O)N[C@@H](Cc1ccccc1)B(O)O | 2100 |  |  |  | 
CC(=O)N[C@@H](Cc1ccccc1)B(O)CN1CCC[C@H]1C(N)=O [Compound I24, [(1R)-(1-Acetamido-2-phenylethyl)]-B-methylene-L-proline amide borinic acid] |  | unstable | stable | quickly decomposes | inhibitors of HIV-1 protease
[(1R)-1-(Ac-Thr-Leu-Asn)-2-phenylethyl]-B-methylene-L-proline amide borinic acid [Compound I28b] |  |  |  |  | inhibitors of HIV-1 protease
[( 1R)-1-(Ac-Ser-Leu-Asn)-2-phenylethyl]-B-methylene-L-proline amide borinic acid [Compound I28a] |  |  |  |  | inhibitors of HIV-1 protease
